“And” between values parts separate entries of the source, which are not always exact repeats. Equal entries are not always repeated. Where two headings read alike, the source gives them in different places. Blank lines part the entries; values can stand above or below the molecule they belong to.
Key:
CYP3A4 [1] = molecular target: T1, CYP3A4 (Homo sapiens, UniProt P08684); assay: Vivid CYP3A4 Red Screening Kit fluorimetric inhibition assay (BOMR substrate); type: biochemical; conditions: human
T1 construct: purchased ThermoFisher Scientific Cat. no; 2856
Protocol: (§1) Flavone, galangin, resokaempferol, myricetin, and gossypetin were purchased from Indofine Chemical Company, Inc. (Hillsborough, NJ, USA). Kaempferol and scutellarein were obtained from Extrasynthese (Genay, France). […] Fisetin was obtained from Biosynth (Staad, Switzerland). […] Dimethyl sulfoxide (DMSO) was obtained from VWR International (Radnor, PA, USA), and acetonitrile was obtained from Merck KGaA (Darmstadt, Germany). The effect on CYP3A4 catalytic performance was evaluated using the Vivid® CYP3A4 Screening Kit (ThermoFischer Scientific, Waltham, MA, USA), following the indications of the manufacturer. This kit assesses how tested compounds affect the rate of fluorescence increase caused by the breakdown of a resorufin-blocked dye substrate by the human CYP3A4 enzyme. The enzyme promoted the cleavage of substrate at two different bonds, both generating a red highly fluorescent dye, in order to minimize spectral interferences caused by other compounds in the reaction medium. […] This setup helped to further circumvent interference from highly fluorescent compounds like NADPH, which are excited at UV wavelengths. […] The last enzyme and its substrate work as NADPH regenerating system since it catalyzes its formation through NADP^+, added subsequently. […] The fluorescence measurements were performed every 30 s for 30 min in a microplate reader with plate shaking and temperature control, 29 °C (Cytation 5, BIO-TEK, Winooski, VT, USA). The percentage of inhibition was calculated based on the reaction initial rates measured from the constant slope values of the fluorescence–time charts. […] The statistical analysis comprised both comparisons by the Student’s t-test for mean % inhibition and one-way analysis of variance (ANOVA) for the comparison between concentrations on the IC50. […] Differences were significant for p < 0.05.

[2] = molecular target: T2, recombinant human CYP3A4 (Baculosomes) (Homo sapiens, UniProt P08684); assay: as above; type: biochemical; conditions: for IC50: Baculosomes, fluorescence, positive control KTZ, mean ± SEM; for Effect on CYP3A4 activity (in words): up to 50 µmol/L
T2 construct: purchased ThermoFisher Scientific Cat. no; 2856
Protocol: as §1

CYP3A4 [3] = conditions: HLM, cited from earlier work
CYP3A4 [4] = conditions: RLM, HPLC, cited from earlier work
CYP3A4 [5] = conditions: BCS, fluorescence, cited from earlier work
CYP3A4 [6] = test system: CYP3A4; set-up: method as in PMID 31756459; conditions: cited from earlier work
CYP3A4 [7] = conditions: substrate BOMCC, enzyme not given, positive control ERYT, fluorescence; cited from earlier work
[8] = recombinant enzyme, pH 8, CYP3A4 Inhibition (%) (50 µmol/L)
[9] = substrate TST, positive control KTZ, HPLC-UV
[10] = recombinant human CYP3A4 Baculosomes, pH 8, probe Vivid BOMR substrate, 50 µmol/L compound, BOMR substrate, mean ± SEM, negative = activation, read-out: CYP3A4 Inhibition (%) (50 µmol/L)

T1 sequence (P08684 whole entry): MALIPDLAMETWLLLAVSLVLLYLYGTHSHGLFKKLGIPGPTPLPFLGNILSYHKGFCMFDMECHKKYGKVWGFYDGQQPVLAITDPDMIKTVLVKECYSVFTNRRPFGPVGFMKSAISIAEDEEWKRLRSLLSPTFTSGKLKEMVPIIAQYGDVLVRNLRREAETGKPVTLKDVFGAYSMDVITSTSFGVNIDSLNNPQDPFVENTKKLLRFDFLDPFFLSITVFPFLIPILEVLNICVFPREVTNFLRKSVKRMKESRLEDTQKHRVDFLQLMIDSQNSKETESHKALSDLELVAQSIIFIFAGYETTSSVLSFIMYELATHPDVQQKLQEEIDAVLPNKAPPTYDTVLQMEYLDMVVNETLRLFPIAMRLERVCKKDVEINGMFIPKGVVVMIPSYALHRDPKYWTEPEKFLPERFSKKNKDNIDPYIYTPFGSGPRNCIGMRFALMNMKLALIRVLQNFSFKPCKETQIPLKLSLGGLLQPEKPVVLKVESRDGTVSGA
T2 sequence (P08684 whole entry): as above

- inhibition at 30 min, 50 µmol/L (CYP3A4 [1]; [10]): 30 ± 13%
SMILES: O=c1c(O)c(-c2ccc(O)c(O)c2)oc2cc(O)ccc12 [Fisetin]

- inhibition at 30 min, 50 µmol/L (CYP3A4 [1]; [10]): 4 ± 9%
SMILES: O=c1c(O)c(-c2ccccc2)oc2cc(O)cc(O)c12 [Galangin]

- inhibition at 30 min, 50 µmol/L (CYP3A4 [1]; [8]): ≥ 50%
- IC50 ([2]; IC50, BOMR substrate): 40 µM and 40.1 µM
SMILES: O=c1c(O)c(-c2ccc(O)c(O)c2)oc2c(O)c(O)cc(O)c12 [Gossypetin]

- inhibition at 30 min, 50 µmol/L (CYP3A4 [1]; [10]): 24 ± 8%
SMILES: O=c1c(O)c(-c2ccc(O)cc2)oc2cc(O)cc(O)c12 [Kaempferol]

- inhibition at 30 min, 50 µmol/L (CYP3A4 [1]; [10]): ≥ 50%
- IC50 ([2]; BOMR substrate, read-out: IC50): 31 µM and 31.2 µM
SMILES: O=c1cc(-c2ccc(O)c(O)c2)oc2cc(O)cc(O)c12 [Luteolin]
- IC50 (CYP3A4 [3]; [9]): 4.62 ± 1.26 µM
- IC50 (CYP3A4 [3]; substrate TST, positive control KTZ, RP-HPLC): 6.8 µM
- IC50 (CYP3A4 [7]): 57.1 ± 16.1 µM

- inhibition at 30 min, 50 µmol/L (CYP3A4 [1]; [10]): 38 ± 11%
SMILES: O=c1c(O)c(-c2ccc(O)cc2O)oc2cc(O)cc(O)c12 [Morin]

- inhibition at 30 min, 50 µmol/L (CYP3A4 [1]; [10]): ≥ 50%
SMILES: O=c1c(O)c(-c2ccc(O)c(O)c2)oc2cc(O)cc(O)c12 [Quercetin]

The next lines start with the molecule.

SMILES: O=c1cc(-c2ccc(O)cc2)oc2cc(O)cc(O)c12 [Apigenin]
- inhibition at 30 min, 50 µmol/L (CYP3A4 [1]; [8]): 23 ± 8%

SMILES: O=c1cc(-c2ccccc2)oc2cc(O)c(O)c(O)c12 [Baicalein]
- IC50 ([2]; IC50, BOMR substrate): 15 ± 5 µM
- IC50 (CYP3A4 [3]; different substrates, fluorescence): 7.56 to 26.4 µM
- IC50 (CYP3A4 [3]; [9]): 9.6 ± 1.18 µM
- IC50 (CYP3A4 [4]; substrate TST): 12 µM
- IC50 (CYP3A4 [5]; substrate BFC, positive control KTZ): 9.2 µM

SMILES: O=c1cc(-c2ccccc2)oc2cc(O)cc(O)c12 [Chrysin]
- inhibition at 30 min, 50 µmol/L (CYP3A4 [1]; [8]): 28 ± 17%

SMILES: O=c1cc(-c2ccccc2)oc2ccccc12 [Flavone]
- inhibition at 30 min, 50 µmol/L (CYP3A4 [1]; [10]): -179 ± 73%
- Effect on CYP3A4 activity (in words) [2]: could act as an activator of the enzyme
- Activation of CYP3A4 (CYP3A4 [6]): 94.65 ± 7.10%

SMILES: O=c1c(O)c(-c2ccc(O)cc2)oc2c(O)c(O)cc(O)c12 [Herbacetin]
- IC50 ([2]; BOMR substrate, read-out: IC50): 32 µM and 31.5 µM
- IC50 (CYP3A4 [3]; UPLC-MS/MS): < 10 µM

SMILES: O=c1c(O)c(-c2cc(O)c(O)c(O)c2)oc2cc(O)cc(O)c12 [Myricetin]
- inhibition at 30 min, 50 µmol/L (CYP3A4 [1]; [8]): 32 ± 12%

SMILES: O=C1C[C@@H](c2ccc(O)cc2)Oc2cc(O)cc(O)c21 [Naringenin]
- inhibition at 30 min, 50 µmol/L (CYP3A4 [1]; [10]): -11 ± 5%
- Effect on CYP3A4 activity (in words) [2]: no inhibitory effect was noticed

SMILES: O=c1c(O)c(-c2ccc(O)cc2)oc2cc(O)ccc12 [Resokaempferol]
- inhibition at 30 min, 50 µmol/L (CYP3A4 [1]; [10]): 38 ± 7%

SMILES: O=c1cc(-c2ccc(O)cc2)oc2cc(O)c(O)c(O)c12 [Scutellarein]
- IC50 ([2]; BOMR substrate, read-out: IC50): 19 µM and 19.1 µM
